Target: human L3MBTL2 4-MBT-repeat domain (4MBT, residues 170–625) (Homo sapiens, UniProt Q969R5)
Assay: Isothermal titration calorimetry
Format: binding
Settings: ITC, 25°C, pH 7.5, 200 mM NaCl; values in Supplementary Figure 3

Sequence of human L3MBTL2 4-MBT-repeat domain (4MBT, residues 170–625) (Q969R5 170-625): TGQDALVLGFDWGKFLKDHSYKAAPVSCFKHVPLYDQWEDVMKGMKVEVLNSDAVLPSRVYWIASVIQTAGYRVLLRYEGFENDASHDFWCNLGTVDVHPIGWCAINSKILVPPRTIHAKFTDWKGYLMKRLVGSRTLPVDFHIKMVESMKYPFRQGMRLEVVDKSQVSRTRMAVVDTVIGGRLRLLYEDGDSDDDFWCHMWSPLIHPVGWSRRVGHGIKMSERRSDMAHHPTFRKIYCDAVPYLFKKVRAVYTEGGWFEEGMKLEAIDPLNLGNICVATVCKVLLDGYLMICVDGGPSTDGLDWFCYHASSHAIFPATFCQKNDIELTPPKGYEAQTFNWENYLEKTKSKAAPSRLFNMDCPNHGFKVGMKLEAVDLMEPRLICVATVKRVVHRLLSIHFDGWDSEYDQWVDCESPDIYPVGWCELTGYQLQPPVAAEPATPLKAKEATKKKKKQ

SMILES: CNCCCC[C@H](N)C(=O)O [free mono-methylated lysine, mono-methylated lysine]
- Relative binding affinity (in words): binds mono- and di-methylated lysine centrally located in a peptide more tightly than free mono-methylated lysine

Source: article PMC2673432 (Nucleic Acids Research, 2009)
